Source: paper PMC7265341, “Quantifying CDK inhibitor selectivity in live cells” (Nature Communications, 2020)
Like-named read-outs stand apart in the source and are kept apart here. One block for each compound: values may come before it.

Legend:
[1] = molecular target: CDK1/Cyclin E1 (Homo sapiens, UniProt P06493); test: NanoBRET live-cell target engagement, CDK1-NanoLuc/Cyclin E1 in HEK-293; assay type: binding; details: CDK1/E1, 10µM
[2] = molecular target: CDK2/Cyclin E1 (Homo sapiens, UniProt P24941); test: NanoBRET live-cell target engagement, CDK2-NanoLuc/Cyclin E1 in HEK-293; assay type: binding; details: CDK2/E1, 10µM
[3] = molecular target: CDK3/Cyclin E1 (Homo sapiens, UniProt Q00526); test: NanoBRET live-cell target engagement, CDK3-NanoLuc/Cyclin E1 in HEK-293; assay type: binding; details: CDK3/E1, 10µM
[4] = molecular target: CDK4/Cyclin D1 (Homo sapiens, UniProt P11802); test: NanoBRET live-cell target engagement, NanoLuc-CDK4/Cyclin D1 in HEK-293; assay type: binding; details: CDK4/D1, 10µM
CDK4/Cyclin D1, sequence (P11802 whole entry): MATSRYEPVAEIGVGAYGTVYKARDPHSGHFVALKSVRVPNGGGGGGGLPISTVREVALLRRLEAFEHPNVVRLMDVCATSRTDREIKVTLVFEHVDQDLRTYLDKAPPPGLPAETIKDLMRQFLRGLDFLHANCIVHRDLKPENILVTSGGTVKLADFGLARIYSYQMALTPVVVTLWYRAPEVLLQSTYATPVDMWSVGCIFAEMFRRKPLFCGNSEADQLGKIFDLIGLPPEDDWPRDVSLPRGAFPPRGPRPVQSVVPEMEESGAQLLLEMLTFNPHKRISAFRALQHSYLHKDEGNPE
CDK4/Cyclin D1, sequence (P24385 whole entry partner): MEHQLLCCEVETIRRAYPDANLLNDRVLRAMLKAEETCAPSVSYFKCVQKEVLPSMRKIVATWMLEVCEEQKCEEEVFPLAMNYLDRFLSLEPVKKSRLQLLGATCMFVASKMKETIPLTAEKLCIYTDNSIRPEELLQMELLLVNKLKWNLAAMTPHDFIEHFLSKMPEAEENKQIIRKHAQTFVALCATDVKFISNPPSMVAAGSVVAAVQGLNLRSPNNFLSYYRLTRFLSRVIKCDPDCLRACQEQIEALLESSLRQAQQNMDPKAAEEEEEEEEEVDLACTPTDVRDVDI

[5] = molecular target: CDK5/CDK5R1 (Homo sapiens, UniProt Q00535); test: NanoBRET live-cell target engagement, CDK5-NanoLuc/CDK5R1 in HEK-293; assay type: binding; details: CDK5/CDK5R1, 10µM
CDK5/CDK5R1, sequence (Q00535 whole entry): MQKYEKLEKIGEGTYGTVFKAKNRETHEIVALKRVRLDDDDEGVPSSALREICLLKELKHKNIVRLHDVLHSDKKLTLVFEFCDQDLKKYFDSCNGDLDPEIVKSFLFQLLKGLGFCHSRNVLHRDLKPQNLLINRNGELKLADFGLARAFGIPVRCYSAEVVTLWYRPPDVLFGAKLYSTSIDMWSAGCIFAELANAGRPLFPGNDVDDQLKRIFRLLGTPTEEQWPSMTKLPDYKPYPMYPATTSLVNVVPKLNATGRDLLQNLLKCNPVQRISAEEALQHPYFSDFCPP
CDK5/CDK5R1, sequence (Q15078 whole entry partner): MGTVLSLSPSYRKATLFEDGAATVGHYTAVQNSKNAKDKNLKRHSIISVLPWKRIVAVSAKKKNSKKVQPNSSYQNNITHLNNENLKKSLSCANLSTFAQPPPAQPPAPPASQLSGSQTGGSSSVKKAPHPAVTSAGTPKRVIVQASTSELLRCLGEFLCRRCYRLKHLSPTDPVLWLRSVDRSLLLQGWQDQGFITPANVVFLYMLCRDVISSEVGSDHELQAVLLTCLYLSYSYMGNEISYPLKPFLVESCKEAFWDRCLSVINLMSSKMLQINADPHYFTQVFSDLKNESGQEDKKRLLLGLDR

[6] = molecular target: CDK6/Cyclin D1 (Homo sapiens, UniProt Q00534); test: NanoBRET live-cell target engagement, NanoLuc-CDK6/Cyclin D1 in HEK-293; assay type: binding; details: CDK6/D1, 10µM
CDK6/Cyclin D1, sequence (Q00534 whole entry): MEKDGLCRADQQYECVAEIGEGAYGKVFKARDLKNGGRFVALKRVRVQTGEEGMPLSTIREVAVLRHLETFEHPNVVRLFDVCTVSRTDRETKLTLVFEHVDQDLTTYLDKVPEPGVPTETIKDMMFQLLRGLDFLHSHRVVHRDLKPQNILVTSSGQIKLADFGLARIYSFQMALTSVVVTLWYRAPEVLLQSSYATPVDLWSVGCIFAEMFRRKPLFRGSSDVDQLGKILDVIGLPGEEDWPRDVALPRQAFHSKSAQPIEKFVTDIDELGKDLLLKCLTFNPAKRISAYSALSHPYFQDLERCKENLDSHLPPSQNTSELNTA
CDK6/Cyclin D1, sequence (P24385 whole entry partner): as the sequence (P24385 whole entry partner) above

[7] = molecular target: CDK7 (Homo sapiens, UniProt P50613); test: NanoBRET live-cell target engagement, NanoLuc-CDK7 in HEK-293; assay type: binding
[8] = molecular target: CDK8/Cyclin C (Homo sapiens, UniProt P49336); test: NanoBRET live-cell target engagement, NanoLuc-CDK8/Cyclin C in HEK-293; assay type: binding; details: CDK8/C; for inhibition at 10 µM: read-out: Inhibition at 10µM (%)
[9] = molecular target: CDK9/Cyclin K (Homo sapiens, UniProt P50750); test: NanoBRET live-cell target engagement, NanoLuc-CDK9/Cyclin K in HEK-293; assay type: binding; details: CDK9/K, 10µM
[10] = molecular target: T1, CDK11A/Cyclin L2 (Homo sapiens, UniProt Q9UQ88); test: NanoBRET live-cell target engagement, CDK11A-NanoLuc/Cyclin L2 in HEK-293; assay type: binding; details: CDK11a/L2; for inhibition at 10 µM: read-out: Inhibition at 10µM (%)
T1 sequence (Q9UQ88 1-783): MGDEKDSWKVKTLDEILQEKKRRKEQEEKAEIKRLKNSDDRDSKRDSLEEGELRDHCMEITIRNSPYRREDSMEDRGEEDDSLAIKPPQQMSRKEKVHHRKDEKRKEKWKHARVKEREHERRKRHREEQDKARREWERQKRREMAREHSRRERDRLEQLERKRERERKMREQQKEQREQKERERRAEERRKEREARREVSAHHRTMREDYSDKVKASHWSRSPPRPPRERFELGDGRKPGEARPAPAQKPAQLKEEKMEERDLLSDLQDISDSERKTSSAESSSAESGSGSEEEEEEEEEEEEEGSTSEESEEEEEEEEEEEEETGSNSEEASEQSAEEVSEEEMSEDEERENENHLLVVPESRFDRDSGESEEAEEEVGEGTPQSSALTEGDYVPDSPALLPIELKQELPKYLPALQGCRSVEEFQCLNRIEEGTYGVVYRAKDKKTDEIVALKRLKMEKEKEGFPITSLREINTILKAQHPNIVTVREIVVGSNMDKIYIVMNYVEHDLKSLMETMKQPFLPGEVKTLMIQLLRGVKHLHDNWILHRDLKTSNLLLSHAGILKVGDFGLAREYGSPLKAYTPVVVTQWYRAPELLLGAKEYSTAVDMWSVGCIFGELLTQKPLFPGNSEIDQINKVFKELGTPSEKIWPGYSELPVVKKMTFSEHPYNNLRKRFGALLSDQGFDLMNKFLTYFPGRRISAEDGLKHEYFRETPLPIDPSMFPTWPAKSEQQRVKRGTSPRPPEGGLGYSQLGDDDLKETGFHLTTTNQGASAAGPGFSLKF

[11] = molecular target: CDK11B/Cyclin L2 (Homo sapiens, UniProt P21127); test: NanoBRET live-cell target engagement, CDK11B-NanoLuc/Cyclin L2 in HEK-293; assay type: binding; details: CDK11b/L2; for inhibition at 10 µM: read-out: Inhibition at 10µM (%)
[12] = molecular target: CDK12/Cyclin K (Homo sapiens, UniProt Q9NYV4); test: NanoBRET live-cell target engagement, CDK12-NanoLuc/Cyclin K in HEK-293; assay type: binding; details: CDK12/K, 10µM
[13] = molecular target: CDK13/Cyclin K (Homo sapiens, UniProt Q14004); test: NanoBRET live-cell target engagement, CDK13-NanoLuc/Cyclin K in HEK-293; assay type: binding; details: CDK13/K, 10µM
[14] = molecular target: CDK14/Cyclin Y (Homo sapiens, UniProt O94921); test: NanoBRET live-cell target engagement, CDK14-NanoLuc/Cyclin Y in HEK-293; assay type: binding; details: CDK14/Y, 10µM
[15] = molecular target: CDK15/Cyclin Y (Homo sapiens, UniProt Q96Q40); test: NanoBRET live-cell target engagement, NanoLuc-CDK15/Cyclin Y in HEK-293; assay type: binding; details: CDK15/Y, 10µM
CDK15/Cyclin Y, sequence (Q96Q40 whole entry): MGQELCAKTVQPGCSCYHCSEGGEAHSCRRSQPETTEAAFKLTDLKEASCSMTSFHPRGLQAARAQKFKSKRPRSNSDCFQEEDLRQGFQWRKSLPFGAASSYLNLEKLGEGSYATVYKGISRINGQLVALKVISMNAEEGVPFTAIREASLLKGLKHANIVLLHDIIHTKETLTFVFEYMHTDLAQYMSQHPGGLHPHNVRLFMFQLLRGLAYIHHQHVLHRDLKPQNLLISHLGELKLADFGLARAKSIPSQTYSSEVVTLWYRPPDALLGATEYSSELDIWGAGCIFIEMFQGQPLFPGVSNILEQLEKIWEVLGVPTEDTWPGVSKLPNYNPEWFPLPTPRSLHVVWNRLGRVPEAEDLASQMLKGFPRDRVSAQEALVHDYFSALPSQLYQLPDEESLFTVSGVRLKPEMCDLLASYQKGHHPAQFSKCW
CDK15/Cyclin Y, sequence (Q8ND76 whole entry partner): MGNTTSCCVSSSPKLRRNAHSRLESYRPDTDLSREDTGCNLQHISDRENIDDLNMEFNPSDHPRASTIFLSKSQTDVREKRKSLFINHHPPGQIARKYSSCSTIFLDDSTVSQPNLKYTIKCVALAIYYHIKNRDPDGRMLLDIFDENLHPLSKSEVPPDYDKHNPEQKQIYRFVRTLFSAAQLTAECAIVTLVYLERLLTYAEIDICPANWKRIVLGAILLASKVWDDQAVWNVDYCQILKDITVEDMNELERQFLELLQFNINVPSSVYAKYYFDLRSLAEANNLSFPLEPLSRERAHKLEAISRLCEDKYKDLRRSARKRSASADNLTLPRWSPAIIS

[16] = molecular target: CDK16/Cyclin Y (Homo sapiens, UniProt Q00536); test: NanoBRET live-cell target engagement, CDK16-NanoLuc/Cyclin Y in HEK-293; assay type: binding; details: CDK16/Y; 10µM
[17] = molecular target: CDK17/Cyclin Y (Homo sapiens, UniProt Q00537); test: NanoBRET live-cell target engagement, CDK17-NanoLuc/Cyclin Y in HEK-293; assay type: binding; details: CDK17/Y, 10µM
CDK17/Cyclin Y, sequence (Q00537 whole entry): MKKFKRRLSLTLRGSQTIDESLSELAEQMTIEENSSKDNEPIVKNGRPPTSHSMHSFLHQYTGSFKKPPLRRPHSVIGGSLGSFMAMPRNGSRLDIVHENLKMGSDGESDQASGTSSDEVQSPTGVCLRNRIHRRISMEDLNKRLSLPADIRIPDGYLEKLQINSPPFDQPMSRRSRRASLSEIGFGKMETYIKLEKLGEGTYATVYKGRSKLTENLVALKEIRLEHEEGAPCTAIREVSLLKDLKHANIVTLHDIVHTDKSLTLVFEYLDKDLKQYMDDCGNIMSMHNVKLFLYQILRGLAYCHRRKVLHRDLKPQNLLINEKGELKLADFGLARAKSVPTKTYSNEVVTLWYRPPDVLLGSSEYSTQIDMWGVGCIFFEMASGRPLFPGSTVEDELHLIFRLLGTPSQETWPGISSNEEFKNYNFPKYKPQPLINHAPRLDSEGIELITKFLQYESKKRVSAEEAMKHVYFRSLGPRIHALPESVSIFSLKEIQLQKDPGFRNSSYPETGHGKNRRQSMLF
CDK17/Cyclin Y, sequence (Q8ND76 whole entry partner): as the sequence (Q8ND76 whole entry partner) above

[18] = molecular target: CDK18/Cyclin Y (Homo sapiens, UniProt Q07002); test: NanoBRET live-cell target engagement, CDK18-NanoLuc/Cyclin Y in HEK-293; assay type: binding; details: CDK18/Y, 10µM
[19] = molecular target: CDK20/Cyclin H (Homo sapiens, UniProt Q8IZL9); test: NanoBRET live-cell target engagement, NanoLuc-CDK20/Cyclin H in HEK-293; assay type: binding; details: for inhibition at 10 µM: read-out: Inhibition at 10µM (%), CDK20/H
CDK20/Cyclin H, sequence (Q8IZL9 whole entry): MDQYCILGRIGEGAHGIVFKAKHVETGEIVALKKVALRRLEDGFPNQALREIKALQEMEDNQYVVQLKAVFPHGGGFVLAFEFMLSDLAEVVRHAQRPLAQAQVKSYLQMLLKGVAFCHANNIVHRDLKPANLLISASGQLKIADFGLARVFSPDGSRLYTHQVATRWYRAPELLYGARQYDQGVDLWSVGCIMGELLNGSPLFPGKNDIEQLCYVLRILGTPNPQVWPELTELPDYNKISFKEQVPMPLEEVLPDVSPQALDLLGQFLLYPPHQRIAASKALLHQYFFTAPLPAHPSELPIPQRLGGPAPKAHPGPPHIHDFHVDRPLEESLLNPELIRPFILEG
CDK20/Cyclin H, sequence (P51946 whole entry partner): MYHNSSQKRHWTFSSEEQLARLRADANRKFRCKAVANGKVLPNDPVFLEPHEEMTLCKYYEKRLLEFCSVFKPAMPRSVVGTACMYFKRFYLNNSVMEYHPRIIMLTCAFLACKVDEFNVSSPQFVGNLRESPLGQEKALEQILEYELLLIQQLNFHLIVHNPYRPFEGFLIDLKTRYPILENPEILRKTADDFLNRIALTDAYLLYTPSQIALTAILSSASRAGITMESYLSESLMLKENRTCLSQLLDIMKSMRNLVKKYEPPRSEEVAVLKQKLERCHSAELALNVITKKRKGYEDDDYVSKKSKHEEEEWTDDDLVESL

[20] = test system: all 21 human CDKs; test: Live-cell selectivity profile across all 21 CDK/cyclin complexes in HEK-293; assay type: binding; details: live cells
[21] = molecular target: CDK19/Cyclin C (Homo sapiens, UniProt Q9BWU1); test: NanoBRET live-cell target engagement, NanoLuc-CDK19/Cyclin C in HEK-293; details: for inhibition at 10 µM: read-out: Inhibition at 10µM (%), CDK19/C
CDK19/Cyclin C, sequence (Q9BWU1 whole entry): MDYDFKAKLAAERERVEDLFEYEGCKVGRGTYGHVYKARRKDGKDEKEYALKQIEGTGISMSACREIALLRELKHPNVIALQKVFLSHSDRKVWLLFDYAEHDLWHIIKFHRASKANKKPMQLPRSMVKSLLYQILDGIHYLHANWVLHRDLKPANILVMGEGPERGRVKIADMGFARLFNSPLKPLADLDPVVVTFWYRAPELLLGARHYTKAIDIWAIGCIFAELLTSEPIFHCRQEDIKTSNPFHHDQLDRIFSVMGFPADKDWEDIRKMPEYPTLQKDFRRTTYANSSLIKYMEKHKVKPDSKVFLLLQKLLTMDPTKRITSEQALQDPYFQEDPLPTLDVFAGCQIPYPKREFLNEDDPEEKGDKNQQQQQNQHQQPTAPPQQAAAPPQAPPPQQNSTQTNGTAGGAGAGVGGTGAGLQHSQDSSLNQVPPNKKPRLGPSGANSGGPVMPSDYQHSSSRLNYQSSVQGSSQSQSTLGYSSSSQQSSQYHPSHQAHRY
CDK19/Cyclin C, sequence (P24863 whole entry partner): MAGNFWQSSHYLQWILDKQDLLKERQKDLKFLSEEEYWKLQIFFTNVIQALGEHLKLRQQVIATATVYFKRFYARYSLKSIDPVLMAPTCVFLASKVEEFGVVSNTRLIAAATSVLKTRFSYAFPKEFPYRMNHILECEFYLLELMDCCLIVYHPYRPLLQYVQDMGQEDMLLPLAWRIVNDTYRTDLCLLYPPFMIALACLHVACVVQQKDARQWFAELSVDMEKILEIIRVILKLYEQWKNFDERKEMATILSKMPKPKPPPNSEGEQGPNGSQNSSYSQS

[22] = molecular target: T2, CDK10/Cyclin L2 (Homo sapiens, UniProt Q15131); test: NanoBRET live-cell target engagement, CDK10-NanoLuc/Cyclin L2 in HEK-293; details: for IC50: n=1; for inhibition at 10 µM: read-out: Inhibition at 10µM (%), CDK10/L2
T2 sequence (Q15131 whole entry): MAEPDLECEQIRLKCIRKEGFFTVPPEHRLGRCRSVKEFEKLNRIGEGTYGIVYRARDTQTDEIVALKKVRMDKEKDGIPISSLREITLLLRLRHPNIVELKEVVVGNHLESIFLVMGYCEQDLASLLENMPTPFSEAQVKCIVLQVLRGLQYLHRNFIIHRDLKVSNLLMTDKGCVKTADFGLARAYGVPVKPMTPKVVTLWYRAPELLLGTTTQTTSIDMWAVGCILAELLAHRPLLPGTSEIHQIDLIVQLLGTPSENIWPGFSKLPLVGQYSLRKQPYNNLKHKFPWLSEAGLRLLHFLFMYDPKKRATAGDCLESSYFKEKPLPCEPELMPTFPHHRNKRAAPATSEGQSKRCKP

[23] = molecular target: T2, CDK10/Cyclin L2; test: cell-based

Inhibition at 10µM (%) Replicate 1 [1]: 19.1% | Inhibition at 10µM (%) Replicate 2 [1]: 12.1% | Inhibition at 10µM (%) Average ([1]; average of replicates): 15.6% | Inhibition at 10µM (%) Replicate 1 [2]: -7.9% | Inhibition at 10µM (%) Replicate 2 [2]: 7.7% | Inhibition at 10µM (%) Average ([2]; average of replicates): -0.109% | Inhibition at 10µM (%) Replicate 1 [3]: 4.4% | Inhibition at 10µM (%) Replicate 2 [3]: 3.4% | Inhibition at 10µM (%) Average ([3]; average of replicates): 3.9% | Inhibition at 10µM (%) Replicate 1 [4]: 13.2% | Inhibition at 10µM (%) Replicate 2 [4]: 14.4% | Inhibition at 10µM (%) Average ([4]; average of replicates): 13.8% | Inhibition at 10µM (%) Replicate 1 [5]: 7.9% | Inhibition at 10µM (%) Replicate 2 [5]: -3.3% | Inhibition at 10µM (%) Average ([5]; average of replicates): 2.3% | Inhibition at 10µM (%) Replicate 1 [6]: 5.5% | Inhibition at 10µM (%) Replicate 2 [6]: 5.4% | Inhibition at 10µM (%) Average ([6]; average of replicates): 5.5% | Inhibition at 10µM (%) Replicate 1 ([7]; CDK7, 10µM): 9.8% | Inhibition at 10µM (%) Replicate 2 ([7]; CDK7, 10µM): 16.0% | Inhibition at 10µM (%) Average ([7]; CDK7, 10µM, average of replicates): 12.9% | Inhibition at 10µM (%) Replicate 1 ([8]; 10µM): 6.1% | Inhibition at 10µM (%) Replicate 2 ([8]; 10µM): -10.6% | Inhibition at 10µM (%) Average ([8]; 10µM, average of replicates): -2.2% | Inhibition at 10µM (%) Replicate 1 [9]: 12.5% | Inhibition at 10µM (%) Replicate 2 [9]: 29.1% | Inhibition at 10µM (%) Average ([9]; average of replicates): 20.8% | Inhibition at 10µM (%) Replicate 1 ([10]; 10µM): -5.6% | Inhibition at 10µM (%) Replicate 2 ([10]; 10µM): 5.6% | Inhibition at 10µM (%) Average ([10]; 10µM, average of replicates): -0.00201% | Inhibition at 10µM (%) Replicate 1 ([11]; 10µM): 8.9% | Inhibition at 10µM (%) Replicate 2 ([11]; 10µM): -3.2% | Inhibition at 10µM (%) Average ([11]; 10µM, average of replicates): 2.8% | Inhibition at 10µM (%) Replicate 1 [12]: 6.2% | Inhibition at 10µM (%) Replicate 2 [12]: -2.0% | Inhibition at 10µM (%) Average ([12]; average of replicates): 2.1% | Inhibition at 10µM (%) Replicate 1 [13]: 3.0% | Inhibition at 10µM (%) Replicate 2 [13]: -9.6% | Inhibition at 10µM (%) Average ([13]; average of replicates): -3.3% | Inhibition at 10µM (%) Replicate 1 [14]: -4.4% | Inhibition at 10µM (%) Replicate 2 [14]: -10.4% | Inhibition at 10µM (%) Average ([14]; average of replicates): -7.4% | Inhibition at 10µM (%) Replicate 1 [15]: 8.0% | Inhibition at 10µM (%) Replicate 2 [15]: 6.5% | Inhibition at 10µM (%) Average ([15]; average of replicates): 7.2% | Inhibition at 10µM (%) Replicate 1 [16]: 4.2% | Inhibition at 10µM (%) Replicate 2 [16]: -9.2% | Inhibition at 10µM (%) Replicate 1 [17]: 0.247% | Inhibition at 10µM (%) Replicate 2 [17]: 1.8% | Inhibition at 10µM (%) Average ([17]; average of replicates): 1.0% | Inhibition at 10µM (%) Replicate 1 [18]: 16.5% | Inhibition at 10µM (%) Replicate 2 [18]: 10.0% | Inhibition at 10µM (%) Average ([18]; average of replicates): 13.2% | Inhibition at 10µM (%) Replicate 1 ([19]; CDK20/H, 10µM): 14.8% | Inhibition at 10µM (%) Replicate 2 ([19]; CDK20/H, 10µM): 26.9% | Inhibition at 10µM (%) Replicate 1 ([21]; CDK19/C, 10µM): 12.8% | Inhibition at 10µM (%) Replicate 2 ([21]; CDK19/C, 10µM): -7.7% | Inhibition at 10µM (%) Average ([21]; CDK19/C, 10µM, average of replicates): 2.6% | Inhibition at 10µM (%) Replicate 1 ([22]; CDK10/L2, 10µM): 1.9% | Inhibition at 10µM (%) Replicate 2 ([22]; CDK10/L2, 10µM): 8.8% | Inhibition at 10µM (%) Average ([22]; CDK10/L2, 10µM, average of replicates): 5.4%
Structure (SMILES): O=C(Nc1c[nH]nc1-c1ccccn1)c1nn(C2CCNCC2)cc1Cl [BDP5290]
engagement of CDKs at concentrations up to 10μM [20]: only weakly engaged

Structure (SMILES): CCc1cnn2c(NCc3ccc[n+]([O-])c3)cc(N3CCCC[C@H]3CCO)nc12 [Dinaciclib]
inhibition at 10 µM ([7]; CDK7, experiment 1, read-out: Inhibition at 10µM (%)): 94.8% | inhibition at 10 µM ([7]; CDK7, experiment 2, read-out: Inhibition at 10µM (%)): 91.5% | inhibition at 10 µM ([7]; read-out: Inhibition at 10µM (%), CDK7, average): 93.1% | inhibition at 10 µM ([8]; average): 24.5% | inhibition at 10 µM ([8]; experiment 1): 40.6% | inhibition at 10 µM ([8]; experiment 2): 8.4% | inhibition at 10 µM ([10]; average): 33% | inhibition at 10 µM ([10]; experiment 1): 36% | inhibition at 10 µM ([10]; experiment 2): 29.9% | inhibition at 10 µM ([11]; average): 45.5% | inhibition at 10 µM ([11]; experiment 1): 46.1% | inhibition at 10 µM ([11]; experiment 2): 45% | inhibition at 10 µM ([19]; experiment 1): 71.7% | inhibition at 10 µM ([19]; experiment 2): 78% | IC50 [23]: 0.72 µM | inhibition at 10 µM ([21]; average): 35.5% | inhibition at 10 µM ([21]; experiment 1): 46.2% | inhibition at 10 µM ([21]; experiment 2): 24.7% | IC50 ([22]; IC50, [Probe 1] 0.5 µM): 0.85 µM | IC50 ([22]; IC50, [Probe 1] 1 µM): 0.74 µM | inhibition at 10 µM ([22]; average): 74.8% | inhibition at 10 µM ([22]; experiment 1): 77.5% | inhibition at 10 µM ([22]; experiment 2): 72.2%
